From the supplement of paper PMC10307832

Tests used:
Test in all cases: relative viability (nuclei count vs DMSO), 5 days (fraction); higher = more cells survive
Carboplatin + Trametinib = compound: C1CC(C1)(C(=O)O)C(=O)O.[NH2-].[NH2-].[Pt+2] [Carboplatin] + CC(=O)Nc1cccc(-n2c(=O)n(C3CC3)c(=O)c3c(Nc4ccc(I)cc4F)n(C)c(=O)c(C)c32)c1 [Trametinib] (partner 0.02 µM)
Procedure, shortened: (§1)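 Lung cancer cell lines, seeded in 1536-well plates, were treated the following day by pin tool with a single drug or with five library-drug doses (not always all listed) in √10 steps on top of a fixed anchor-drug dose. Cells were fixed and nuclei stained in one step after 5 days, and nuclei were counted. Relative viability is the nuclei count for treated wells divided by that for vehicle wells, reported as medians of duplicate plates.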

MLN4924 + Linsitinib = compound: NS(=O)(=O)OC[C@@H]1C[C@@H](n2ccc3c(N[C@H]4CCc5ccccc54)ncnc32)C[C@@H]1O [MLN4924] + C[C@]1(O)C[C@@H](c2nc(-c3ccc4ccc(-c5ccccc5)nc4c3)c3c(N)nccn32)C1 [Linsitinib] (partner 1 µM)
Procedure, shortened: as §1

MLN4924 + Tozasertib = compound: NS(=O)(=O)OC[C@@H]1C[C@@H](n2ccc3c(N[C@H]4CCc5ccccc54)ncnc32)C[C@@H]1O [MLN4924] + Cc1cc(Nc2cc(N3CCN(C)CC3)nc(Sc3ccc(NC(=O)C4CC4)cc3)n2)n[nH]1 [Tozasertib] (partner 0.1 µM)
Procedure, shortened: as §1

Carboplatin + OSI-027 = compound: C1CC(C1)(C(=O)O)C(=O)O.[NH2-].[NH2-].[Pt+2] [Carboplatin] + COc1cccc2cc(-c3nc([C@H]4CC[C@H](C(=O)O)CC4)n4ncnc(N)c34)[nH]c12 [OSI-027] (partner 0.5 µM)
Procedure, shortened: as §1

Cell Line | relative viability (Carboplatin + Trametinib; first compound 0.08 µM) | relative viability (Carboplatin + Trametinib; first compound 0.253 µM) | relative viability (Carboplatin + Trametinib; first compound 0.8 µM) | relative viability (Carboplatin + Trametinib; first compound 2.53 µM) | relative viability (Carboplatin + Trametinib; first compound 8 µM) | relative viability (MLN4924 + Linsitinib; first compound 0.04 µM) | relative viability (MLN4924 + Linsitinib; first compound 0.1265 µM) | relative viability (MLN4924 + Linsitinib; first compound 0.4 µM) | relative viability (MLN4924 + Linsitinib; first compound 1.265 µM) | relative viability (MLN4924 + Linsitinib; first compound 4 µM) | relative viability (MLN4924 + Tozasertib; first compound 0.04 µM) | relative viability (MLN4924 + Tozasertib; first compound 0.1265 µM) | relative viability (MLN4924 + Tozasertib; first compound 0.4 µM) | relative viability (MLN4924 + Tozasertib; first compound 1.265 µM) | relative viability (MLN4924 + Tozasertib; first compound 4 µM) | relative viability (Carboplatin + OSI-027; first compound 0.08 µM) | relative viability (Carboplatin + OSI-027; first compound 0.253 µM) | relative viability (Carboplatin + OSI-027; first compound 0.8 µM) | relative viability (Carboplatin + OSI-027; first compound 2.53 µM) | relative viability (Carboplatin + OSI-027; first compound 8 µM)
201T | 0.833 | 0.693 | 0.699 | 0.714 | 0.694 | 1.22 | 1.29 | 1.17 | 0.481 | 0.505 | 1.07 | 0.737 | 0.697 | 0.301 | 0.319 | 0.828 | 0.749 | 0.824 | 0.68 | 0.349
A549 |  |  |  |  |  | 0.635 | 0.626 | 0.496 | 0.0571 | 0.047 |  |  |  |  |  |  |  |  |  | 
A-427 | 0.85 | 0.812 | 0.747 | 0.81 | 0.739 | 0.686 | 0.381 | 0.315 | 0.222 | 0.217 | 0.168 | 0.164 | 0.128 | 0.131 | 0.133 | 0.449 | 0.531 | 0.479 | 0.499 | 0.39
ABC-1 |  |  |  |  |  | 0.875 | 0.795 | 0.618 | 0.238 | 0.218 | 0.154 | 0.155 | 0.144 | 0.132 | 0.149 | 0.551 | 0.509 | 0.547 | 0.335 | 0.299
BEN | 1.2 | 0.928 | 0.97 | 0.893 | 0.865 | 0.765 | 0.464 | 0.319 | 0.17 | 0.188 | 0.411 | 0.308 | 0.35 | 0.228 | 0.222 | 0.295 | 0.304 | 0.266 | 0.287 | 0.292
CAL-12T | 0.385 | 0.352 | 0.299 | 0.33 | 0.365 | 0.717 | 0.636 | 0.237 | 0.135 | 0.143 | 0.325 | 0.365 | 0.262 | 0.237 | 0.167 | 0.696 | 0.603 | 0.735 | 0.779 | 0.526
COR-L23 | 0.619 | 0.645 | 0.559 | 0.509 | 0.229 | 0.788 | 0.801 | 0.619 | 0.149 | 0.11 | 0.207 | 0.205 | 0.181 | 0.122 | 0.0744 | 0.894 | 0.903 | 0.618 | 0.466 | 0.231
COR-L 105 | 0.472 | 0.445 | 0.441 | 0.456 | 0.442 | 0.8 | 0.615 | 0.424 | 0.283 | 0.231 | 0.343 | 0.331 | 0.323 | 0.247 | 0.241 | 0.835 | 0.776 | 0.696 | 0.62 | 0.537
Calu-6 |  |  |  |  |  | 0.946 | 0.708 | 0.317 | 0.101 | 0.109 |  |  |  |  |  |  |  |  |  | 
ChaGo-K-1 | 0.857 | 0.917 | 0.831 | 0.717 | 0.546 |  |  |  |  |  | 0.22 | 0.174 | 0.221 | 0.184 | 0.158 | 0.614 | 0.473 | 0.527 | 0.42 | 0.316
EBC-1 |  |  |  |  |  | 0.812 | 0.628 | 0.182 | 0.102 | 0.13 |  |  |  |  |  |  |  |  |  | 
EKVX | 0.324 | 0.342 | 0.332 | 0.359 | 0.327 | 0.949 | 0.653 | 0.471 | 0.169 | 0.127 | 0.408 | 0.457 | 0.299 | 0.155 | 0.127 | 0.739 | 0.736 |  | 0.674 | 0.683
EMC-BAC-2 | 0.899 | 0.825 | 0.924 | 0.832 | 0.686 | 0.805 | 0.547 | 0.237 | 0.179 | 0.163 | 0.254 | 0.254 | 0.208 | 0.212 | 0.239 | 0.423 | 0.372 | 0.364 | 0.374 | 0.375
EPLC-272H | 0.302 | 0.317 | 0.334 | 0.273 | 0.303 | 1.14 | 1.13 | 0.147 | 0.183 | 0.216 | 0.249 | 0.159 | 0.0675 | 0.132 | 0.133 | 0.299 | 0.287 | 0.291 | 0.259 | 0.247
H3255 | 0.699 | 0.83 | 0.754 | 0.588 | 0.474 | 0.927 | 0.593 | 0.354 | 0.201 | 0.257 | 0.671 | 0.374 | 0.339 | 0.236 | 0.286 | 0.591 | 0.513 | 0.529 | 0.519 | 0.488
HARA | 0.68 | 0.865 | 0.917 | 0.412 | 0.607 | 0.568 | 0.455 | 0.481 | 0.092 | 0.0886 | 0.101 | 0.0797 | 0.0797 | 0.0484 | 0.065 | 0.619 | 0.644 | 0.476 | 0.462 | 0.385
HCC-15 | 0.371 | 0.399 | 0.381 | 0.391 | 0.371 | 0.558 | 0.249 | 0.16 | 0.0968 | 0.104 | 0.266 | 0.167 | 0.129 | 0.0769 | 0.0852 | 0.833 | 0.664 | 0.689 | 0.635 | 0.439
HCC-44 | 1.14 | 1.08 | 1.02 | 1.1 | 0.903 | 0.561 | 0.219 | 0.199 | 0.156 | 0.129 | 0.816 | 0.471 | 0.186 | 0.231 | 0.272 | 0.53 | 0.572 | 0.5 | 0.484 | 0.292
